Assay results reported in PMC8024735, “Low Z‐4OHtam concentrations are associated with adverse clinical outcome among early stage premenopausal breast cancer patients treated with adjuvant tamoxifen” (Molecular Oncology, 2020).
Several values for one entry are separate records, joined by “and”; a condition that tells them apart may be missing. Equal entries are not always repeated.

Assays:
[1] = Quantification of tamoxifen and seven metabolites in bone marrow plasma by LC-MS/MS; conditions: for Mean concentration / Median concentration: bone marrow plasma, N = 406, ~ 8 months from tamoxifen initiation
Description: During the isolation of mononuclear cells, BM samples were diluted 1 : 2 in PBS and centrifuged 10 min at 1000 g. After centrifugation, 3 × 1 mL samples of BM plasma was removed and stored at −40 °C and later transferred to −80 °C.
Tamoxifen and seven metabolites (Table 2) were quantified in human BM plasma samples collected ~ 8 months from tamoxifen initiation using our previously described method for serum [17]. In brief, protein precipitation (20 μL) of BM plasma was performed in acetonitrile containing deuterated internal standards. The supernatant (80 μL) was evaporated to dryness using nitrogen and subsequently reconstituted in 500 μL water : methanol (20 : 80, v:v). Subsequently, the samples were chromatographically separated on a Waters Acquity UPLC system (Milford, MA, USA) using a Waters BEH Phenyl column (100 mm × 2.1 mm, 1.7 μm particle size). The column was developed by a gradient elution of 0.01% aqueous solution of formic acid and methanol as weak and strong mobile phases, respectively. The compounds were subjected to atmospheric pressure photoionization and detected in positive ion mode using a Xevo TQ‐S tandem mass spectrometer (Waters, Taunton, MA, USA). All measured concentrations were multiplied by 3 to account for the dilution factor caused by adding 2 volumes of PBS during the isolation of mononuclear cells.

ER = conditions: fold higher than tamoxifen; cited from earlier work
[2] = test system: estrogen receptor‐positive breast cancer (BC) patients; assay: Breast cancer-specific survival (BCSS) according to active metabolite thresholds, Kaplan-Meier and Cox regression; format: in vivo, human
Description: Patients included in this retrospective analysis were selected from subjects on a prospective trial investigating the value of Secondary Adjuvant (rescue) Treatment with docetaxel (Taxotere) [SATT (Secondary Adjuvant Treatment with Taxotere) study] for BC patients with disseminated tumor cells in their bone marrow (BM). […] Inclusion criteria were completion of primary surgery, completion of six cycles of anthracycline (AC)‐containing chemotherapy, and node‐positive or pT1c‐T4G2‐3 node‐negative BC with no earlier or other concomitant carcinoma.
Thus, they reflect patients treated with endocrine treatment outside studies, according to national guidelines.
Selection of patients younger than 45 years ensured that the patients received tamoxifen as a monotherapy for 5 years according to guidelines at the time of inclusion. […] Patients with plasma tamoxifen concentrations of < 40 nM were considered to be nonadherent to tamoxifen and excluded from both subgroups. As molecular subtyping was not available, the relevance of luminal subgroup status on active metabolite thresholds was investigated by creation of a Luminal B‐like subgroup based on tumor pathological surrogate markers available. […] All other patients were grouped as Luminal A [29, 30].
Survival analyses included Kaplan–Meier and Cox regression analyses in which breast cancer‐specific survival (BCSS), defined as time from inclusion to death by BC, was used as the main outcome variable. The log‐rank test was applied to test for statistical difference in survival between groups. […] First, we fitted univariable Cox models. Next, in multivariable Cox regression models we included both clinically relevant variables and variables with a P‐value ≤ 0.2 from the univariable analysis. […] Distribution of metabolite concentrations and clinical variables was calculated and presented as means, medians, and frequencies. Interpatient variability in tamoxifen concentrations was calculated as coefficients of variation. Ratios between Z‐endoxifen and Z‐4OHtam were calculated by dividing the two metabolite concentrations and reported as means with range. All statistical analyses were conducted using IBM ® SPSS ® Statistics version 25 (SPSS, Inc., Chicago, IL, USA). Two‐tailed P‐values < 0.05 were considered statistically significant.

[3] = set-up: method as in printed; conditions: has been reported, ref not given; cited from earlier work
breast cancer patients = test system: breast cancer patients; set-up: method as in PMID 29183390; conditions: thresholds Z-4OHtam 3.26 nM, Z-endoxifen 9 nM, learning set; cited from earlier work
ER‐positive BC = test system: ER‐positive BC; set-up: method as in PMID 15894097; conditions: patients using tamoxifen; cited from earlier work
[4] = all analyzed patients (n = 406)

Compound `CC/C(=C(\c1ccccc1)c1ccc(OCCN(C)C)cc1)c1ccc(O)cc1` [Z‐4'‐OHtam] has a Mean concentration [1] of 6.9 nM and a Median concentration [1] of 6.6 nM.

Work on `CC/C(=C(\c1ccccc1)c1ccc(OCCNC)cc1)c1ccccc1` [NDtam] yielded a Mean concentration [1] of 694.9 nM and a Median concentration [1] of 655.8 nM.

For `CC/C(=C(\c1ccccc1)c1ccc(OCCN)cc1)c1ccccc1` [NNDDtam, N,N‐di‐desmethyl tamoxifen], the Mean concentration [1] was 94.7 nM.

In the case of `CC/C(=C(\c1ccc(O)cc1)c1ccc(OCCNC)cc1)c1ccccc1` [Z‐endoxifen, 4‐hydroxy‐N‐desmethyl tamoxifen], the “Affinity to the ER compared with tamoxifen” value (ER) is listed as 100 × and ~ 100 ×, the “Median ratio between Z-endoxifen and Z-4OHtam concentrations” value ([1]; 'tamoxifen-only' subgroup) is listed as 5.6 and the “Range of ratio between Z-endoxifen and Z-4OHtam concentrations” value ([1]; 'tamoxifen-only' subgroup) is listed as 1.9–14.9. For the same compound, the “Median ratio between Z-endoxifen and Z-4OHtam concentrations” value [1, 4] was 5.7, the “Range of ratio between Z-endoxifen and Z-4OHtam concentrations” value [1, 4] was 1.2–14.9 and the Mean concentration [1] was 28.7 nM. For the same compound, the Median concentration [1] was 26.6 nM, the “Association of ordinal categories (low, moderate, high concentration) with BCSS” value ([2]; 'tamoxifen-only' subgroup) was “No significant associations” and the “Association of threshold with BCSS” value ([2]; 'tamoxifen-only' subgroup, uni-/multivariable) was “No uni‐/multivariable associations”. For the same compound, the “HR for BCSS” value ([2]; Z-endoxifen 9.00 nM threshold, all patients n = 406) was 0.63 (0.15-2.60), the “HR (95% CI) for BCSS, univariable” value ([2]; Z-endoxifen ≤ 9 nM vs > 9 nM, 'tamoxifen-only' subgroup n = 191) was 0.98 (0.23–4.15) and the “Association of concentrations below thresholds with BCSS” value ([2]; all 406 patients, thresholds 9 nM Z-endoxifen, 3.26 nM Z-4OHtam) was “not associated with BCSS”. The “Predictive value of thresholds in Luminal A / Luminal B-like subgroups” value ([2]; post hoc analysis, thresholds 3.26 and 9 nM) was “not predictive of survival in either subgroup”, the “Abundance in serum compared with Z-4OHtam” value [3] was “up to 10 times” and the “Hazard ratio (HR) of threshold in prior report” value (breast cancer patients) was 3.73.

For `CC/C(=C(\c1ccccc1)c1ccc(OCC[N+](C)(C)[O-])cc1)c1ccccc1` [TamNoX], the Mean concentration [1] was 49.9 nM and the Median concentration [1] was 43.1 nM.

In the case of `CC/C(=C(\c1ccc(O)cc1)c1ccc(OCCN(C)C)cc1)c1ccccc1` [Z‐4OHtam, Z‐4‐hydroxy‐tamoxifen], the “Affinity to the ER compared with tamoxifen” value (ER) is listed as 100 × and ~ 100 ×.

Compound `CCC(=C(c1ccccc1)c1ccc(OCCNC)cc1)c1ccc(O)cc1` [Z‐4'‐endoxifen] has a Mean concentration [1] of 20.8 nM and a Median concentration [1] of 19.6 nM.

For `CC/C(=C(\c1ccccc1)c1ccc(OCCN(C)C)cc1)c1ccccc1` [Tam, tamoxifen], the “Patients experiencing a relapse within 10 years” value (ER‐positive BC) is given as ~ 25%, the Mean concentration [1] is given as 365.9 nM and the Median concentration [1] is given as 341.2 nM.
